Laboratory results: patent US4772586A, “Novel derivatives of arginine vasopressin antagonists” (Medical College of Ohio, priority 1986, dated 1988)
*1 amine or outer side, *2 acyl side, *3 side chain or, on linkers, in order; H or OH if unused. Where a SMILES comes first, the peptide text is derived from it. Bridges are numbered along the chain shown (N, C = ends). [ ]: non-standard residue; d: D form. The star is where a group is joined. Ethylenediamine = C(CN[*:2])N[*:1]; X1 = O=C(CC1(S[*:2])CCCCC1)[*:1]; NH(CH2)4NH2 = NCCCCN*; NHCH2CH2OH = OCCN*; βAla = NCCC(=O)O; Sar = CNCC(=O)O; NHBu = CCCCN*

Tests used:
[1] = test system: vasopressor response to arginine vasopressin; assay: Antagonism to the vasopressor response (Anti-VP); type: in vivo; settings: estimated in vivo pA2; for Anti-VP pA2: Table 1
Experimental: Antagonism to the vasopressor response was estimated in accordance with Dyckes et al., J. Med. Chem., vol. 17 (1974) at 969. The values are expressed as pA2 values, defined as in Schild et al., Br. J. Pharmacol., vol. 2 (1947) at 189.
(§1) Antagonistic potencies were determined and expressed as "effective doses" and pA2 values. The "effective dose" is defined as the dose (in nanomoles per kilogram) that reduces the response seen from 2x units of agonist injected 20 min after the dose of antagonist to the response with 1x units of agonist. Estimated in vivo "pA2 " values represent the negative logarithms of the effective doses, divided by the estimated volume of distribution (67 ml/kg).

[2] = test system: antidiuretic response to arginine vasopressin; assay: Antagonism of the antidiuretic response to arginine vasopressin (Anti-ADH); type: in vivo, rats; settings: for Anti-ADH Potency pA2: estimated in vivo pA2; for Anti-ADH pA2: Table 1, estimated in vivo pA2 = negative log of effective dose divided by volume of distribution (67 ml/kg)
Experimental: Activity as antidiuretic agonists was determined by intravenous injection of the compounds being evaluated in ethanol-anesthesized water-loaded rats in accordance with Sawyer, Endocrinology, vol. 63 (1958) at 694. Antagonism of the antidiuretic response to subsequent injections of arginine vasopressin was tested by the method of Sawyer et al., Science, vol. 212 (1981) at 49.
as §1

## CC[C@H](C)[C@@H]1NC(=O)[C@H](Cc2ccccc2)NC(=O)[C@@H](Cc2ccc(O)cc2)NC(=O)CC2(CCCCC2)SSC[C@@H](C(=O)N2CCC[C@H]2C(=O)N[C@@H](CCCNC(=N)N)C(=O)NCCN)NC(=O)[C@H](CC(N)=O)NC1=O [[1-beta-mercapto-beta,beta-cyclopentamethylenepropionic acid, 2-D-tyrosine, 4-isoleucine, 8-arginine-N-(beta-amino)ethylamide, 9-desglycinamide] vasopressin] ([dY]FINCPR-Ethylenediamine; linker N-5 via X1)
[1]; Table 4, ^+ = mixed
  Anti-VP Potency pA2: 7.93 ± 0.08
[2]; Table 4
  Anti-ADH Potency pA2: 7.81 ± 0.06

## CC[C@H](C)[C@@H]1NC(=O)[C@H](Cc2ccccc2)NC(=O)[C@@H](Cc2ccccc2)NC(=O)CC2(CCCCC2)SSC[C@@H](C(=O)N2CCC[C@H]2C(=O)N[C@@H](CCCNC(=N)N)C(=O)NCC(=O)NC)NC(=O)[C@H](CC(N)=O)NC1=O [[1-(beta-mercapto-beta,beta-cyclopentamethylenepropionic acid), 2-D-phenylalanine, 4-isoleucine, 9-glycine-N-methylamide]-arginine vasopressin] ([dF]FINCPRG-NHMe; linker N-5 via X1)
[1]; Table 4, ^+ = mixed
  Anti-VP Potency pA2: 6.22
[2]; Table 4
  Anti-ADH Potency pA2: 8.07 ± 0.07

## CC[C@H](C)[C@@H]1NC(=O)[C@H](Cc2ccccc2)NC(=O)[C@@H](Cc2ccccc2)NC(=O)CC2(CCCCC2)SSC[C@@H](C(=O)N2CCC[C@H]2C(=O)N[C@@H](CCCNC(=N)N)C(=O)NCC(N)=O)NC(=O)[C@H](CC(N)=O)NC1=O [d(CH2)5 [D-Phe^2,Ile^ 4]AVP, [1-(beta-mercapto-beta,beta-cyclopentamethylenepropionic acid), 2-D-phenylalanine, 4-isoleucine]-arginine vasopressin, reference compound] ([dF]FINCPRG-NH2; linker N-5 via X1)
[1]
  Anti-VP pA2: 7.86 ± 0.05
[2]
  Anti-ADH pA2: 8.24 ± 0.08

## COc1ccc(C[C@@H]2NC(=O)CC3(CCCCC3)SSC[C@@H](C(=O)N3CCC[C@H]3C(=O)N[C@@H](CCCNC(=N)N)C(N)=O)NC(=O)[C@H](CC(N)=O)NC(=O)[C@H](CCC(N)=O)NC(=O)[C@H](Cc3ccccc3)NC2=O)cc1 [desGly^9 d(CH2)5 [Tyr(Me)^2]AVP, [1-(beta-mercapto-beta,beta-cyclopentamethylenepropionic acid), 2-(O-methyl)tyrosine, 9-desglycine]-arginine vasopressin] (Y(Me)FQNCPR-NH2; linker N-5 via X1)
[1]
  Anti-VP pA2: 8.44 ± 0.10
[2]
  Anti-ADH pA2: ~ 6.1

## CNC(=O)CN(C)C(=O)[C@H](CCCNC(=N)N)NC(=O)[C@@H]1CCCN1C(=O)[C@@H]1CSSC2(CCCCC2)CC(=O)N[C@@H](Cc2ccc(OC)cc2)C(=O)N[C@@H](Cc2ccccc2)C(=O)N[C@@H](CCC(N)=O)C(=O)N[C@@H](CC(N)=O)C(=O)N1 [d(CH2)5 [Tyr(Me)^2, Sar(NHMe)^9]AVP, [1-(beta-mercapto-beta,beta-cyclopentamethylenepropionic acid), 2-O-methyltyrosine, 9-sarcosine-N-methylamide]-arginine vasopressin] (Y(Me)FQNCPR[Sar]-NHMe; linker N-5 via X1)
[1]; Table 4, ^+ = mixed
  Anti-VP Potency pA2: 8.31 ± 0.03
[2]; Table 4
  Anti-ADH Potency pA2: ~ 5.5

## CCCCNC(=O)[C@H](CCCNC(=N)N)NC(=O)[C@@H]1CCCN1C(=O)[C@@H]1CSSC2(CCCCC2)CC(=O)N[C@H](Cc2ccc(OCC)cc2)C(=O)N[C@@H](Cc2ccccc2)C(=O)N[C@@H]([C@@H](C)CC)C(=O)N[C@@H](CC(N)=O)C(=O)N1 [[1-beta-mercapto-beta,beta-cyclopentamethylenepropionic acid), 2-(D-O-ethyl)tyrosine, 4-isoleucine, 8-arginine-N-(n-butyl)amide, 9-desglycinamide] vasopressin] ([dY](Et)FINCPR-NHBu; linker N-5 via X1)
[1]; Table 4, ^+ = mixed
  Anti-VP Potency pA2: 7.51 ± 0.08
[2]; Table 4
  Anti-ADH Potency pA2: 7.62 ± 0.09

## CC[C@H](C)[C@@H]1NC(=O)[C@H](Cc2ccccc2)NC(=O)[C@@H](Cc2ccccc2)NC(=O)CC2(CCCCC2)SSC[C@@H](C(=O)N2CCC[C@H]2C(=O)N[C@@H](CCCNC(=N)N)C(=O)NCC(=O)NCCN)NC(=O)[C@H](CC(N)=O)NC1=O [[1-(beta-mercapto-beta,beta-cyclopentamethylenepropionic acid), 2-D-phenylalanine, 4-isoleucine, 9-glycine-N-(beta-amino)ethylamide]-arginine vasopressin] ([dF]FINCPRG-Ethylenediamine; linker N-5 via X1)
[1]; Table 4, ^+ = mixed
  Anti-VP Potency pA2: 7.58 ± 0.07
[2]; Table 4
  Anti-ADH Potency pA2: 8.10 ± 0.10

## CC[C@H](C)[C@@H]1NC(=O)[C@H](Cc2ccccc2)NC(=O)[C@@H](Cc2ccccc2)NC(=O)CC2(CCCCC2)SSC[C@@H](C(=O)N2CCC[C@H]2C(=O)N[C@@H](CCCNC(=N)N)C(=O)N[C@@H](CCCNC(=N)N)C(N)=O)NC(=O)[C@H](CC(N)=O)NC1=O [Arg(NH2), [1-(beta-mercapto-beta,beta-cyclopentamethylenepropionic acid), 2-D-phenylalanine, 4-isoleucine, 9-argininamide]-arginine vasopressin] ([dF]FINCPRR-NH2; linker N-5 via X1)
[1]; Table 2
  Anti-VP Potency pA2: 8.11 ± 0.07
[2]; Table 2
  Anti-ADH Potency pA2: 8.05 ± 0.11

## CC[C@H](C)[C@@H]1NC(=O)[C@H](Cc2ccccc2)NC(=O)[C@@H](Cc2ccccc2)NC(=O)CC2(CCCCC2)SSC[C@@H](C(=O)N2CCC[C@H]2C(=O)N[C@@H](CCCNC(=N)N)C(=O)NCCO)NC(=O)[C@H](CC(N)=O)NC1=O [[1-(beta-mercapto-beta,beta-cyclopentamethylenepropionic acid), 2-D-phenylalanine, 4-isoleucine, 8-arginine-N-(beta-hydroxy)ethylamide, 9-desglycinamide] vasopressin] ([dF]FINCPR-NHCH2CH2OH; linker N-5 via X1)
[1]; Table 4, ^+ = mixed
  Anti-VP Potency pA2: 7.45 ± 0.12
[2]; Table 4
  Anti-ADH Potency pA2: 8.17 ± 0.10

## CC[C@H](C)[C@@H]1NC(=O)[C@H](Cc2ccccc2)NC(=O)[C@@H](Cc2ccccc2)NC(=O)CC2(CCCCC2)SSC[C@@H](C(=O)N2CCC[C@H]2C(=O)N[C@@H](CCCNC(=N)N)C(=O)O)NC(=O)[C@H](CC(N)=O)NC1=O [[1-(beta-mercapto-beta,beta-cyclopentamethylenepropionic acid), 2-D-phenylalanine, 4-isoleucine, 9-desglycinamide]-arginine vasopressin] ([dF]FINCPR-OH; linker N-5 via X1)
[1]
  Anti-VP pA2: 6.74 ± 0.08
[1]; Table 4, ^+ = mixed
  Anti-VP Potency pA2: 7.84 ± 0.03
[2]
  Anti-ADH pA2: 7.20 ± 0.10
[2]; Table 4
  Anti-ADH Potency pA2: 8.05 ± 0.09

## CC[C@H](C)[C@@H]1NC(=O)[C@H](Cc2ccccc2)NC(=O)[C@@H](Cc2ccccc2)NC(=O)CC2(CCCCC2)SSC[C@@H](C(=O)N2CCC[C@H]2C(=O)N[C@@H](CCCNC(=N)N)C(=O)N2CCC[C@H]2C(N)=O)NC(=O)[C@H](CC(N)=O)NC1=O [Pro(NH2), [1-(beta-mercapto-beta,beta-cyclopentamethylenepropionic acid), 2-D-phenylalanine, 4-isoleucine, 9-prolinamide]-arginine vasopressin] ([dF]FINCPRP-NH2; linker N-5 via X1)
[1]; Table 2
  Anti-VP Potency pA2: 7.12 ± 0.11
[2]; Table 2
  Anti-ADH Potency pA2: 7.19 ± 0.04

## CCOc1ccc(C[C@H]2NC(=O)CC3(CCCCC3)SSC[C@@H](C(=O)N3CCC[C@H]3C(=O)N[C@@H](CCCNC(=N)N)C(=O)NCCC(=O)NC)NC(=O)[C@H](CC(N)=O)NC(=O)[C@H](C(C)C)NC(=O)[C@H](Cc3ccccc3)NC2=O)cc1 [1-(beta-mercapto-beta,beta-cyclopentamethyleneproprionic acid), 2-D-(O-ethyl)tyrosine, 4-valine, 9-beta-alanine-N-methylamide]-arginine vasopressin] ([dY](Et)FVNCPR[βAla]-NHMe; linker N-5 via X1)
[1]; Table 4, ^+ = mixed
  Anti-VP Potency pA2: 7.77 ± 0.05
[2]; Table 4
  Anti-ADH Potency pA2: 7.61 ± 0.02

## CCOc1ccc(C[C@H]2NC(=O)CC3(CCCCC3)SSC[C@@H](C(=O)N3CCC[C@H]3C(=O)N[C@@H](CCCNC(=N)N)C(=O)NCCCCN)NC(=O)[C@H](CC(N)=O)NC(=O)[C@H]([C@@H](C)CC)NC(=O)[C@H](Cc3ccccc3)NC2=O)cc1 [[1-(beta-mercapto-beta,beta-cyclopentamethylenepropionic acid), 2-D-(O-ethyl)tyrosine, 4-isoleucine, 8-arginine-N-(delta-amino)butylamide,9-desglycinamide] vasopressin] ([dY](Et)FINCPR-{NH(CH2)4NH2}; linker N-5 via X1)
[1]; Table 4, ^+ = mixed
  Anti-VP Potency pA2: 7.78 ± 0.4
[2]; Table 4
  Anti-ADH Potency pA2: 7.68 ± 0.05

## CC[C@H](C)[C@@H]1NC(=O)[C@H](Cc2ccccc2)NC(=O)[C@@H](Cc2ccccc2)NC(=O)CC2(CCCCC2)SSC[C@@H](C(=O)N2CCC[C@H]2C(=O)N[C@@H](CCCNC(=N)N)C(=O)N[C@@H](Cc2ccc(O)cc2)C(N)=O)NC(=O)[C@H](CC(N)=O)NC1=O [Tyr(NH2), [1-(beta-mercapto-beta,beta-cyclopentamethylenepropionic acid), 2-D-phenylalanine, 4-isoleucine, 9-tyrosinamide]-arginine vasopressin] ([dF]FINCPRY-NH2; linker N-5 via X1)
[1]; Table 2
  Anti-VP Potency pA2: 7.27 ± 0.05
[2]; Table 2
  Anti-ADH Potency pA2: 7.85 ± 0.06
